Here are results for 1 compound from ChEMBL document CHEMBL4043168, “The design and SAR of a novel series of 2-aminopyridine based LRRK2 inhibitors” (Bioorg Med Chem Lett, 2017).

Experiment [1] deals with Serine/threonine-protein kinase TBK1 (Homo sapiens) (UniProt Q9UHD2). Nature of the experiment: Inhibition of TBK1 conserved Lys2 (DIKPGNIMR) in human PBMC at 1 uM.
The target in experiment [2] is Tyrosine-protein kinase Fer (Homo sapiens) (UniProt P16591). Nature of the experiment: Inhibition of FER conserved Lys2 (QEDGGVYSSSGLKQIPIK) in human PBMC at 0.1 uM.
For experiment [3], the target named is Phosphatidylinositol 4-kinase beta (Homo sapiens) (UniProt Q9UBF8). Put plainly: Inhibition of PI4KB ATP binding site (VPHTQAVVLNSKDK) in human PBMC at 1 uM.
Experiment [4] addresses Myosin light chain kinase, smooth muscle (Homo sapiens) (UniProt Q15746). Put plainly: Inhibition of smMLCK conserved Lys2 (QGIVHLDLKPENIMCVNK) in human PBMC at 1 uM.
Experiment [5] concerns the target MAP/microtubule affinity-regulating kinase 4 (Homo sapiens) (UniProt Q96L34). Put plainly: Inhibition of MARK4 conserved Lys1 (EVAIKIIDK) in human PBMC at 0.1 uM.
The target of experiment [6] is Ribosomal protein S6 kinase alpha-1 (Homo sapiens) (UniProt Q15418). Put plainly: Inhibition of RSK1 domain1 activation Loop (LTDFGLSKEAIDHEKK) in human PBMC at 0.1 uM.
For experiment [7], the target named is Serine/threonine-protein kinase Chk2 (Homo sapiens) (UniProt O96017). Put plainly: Inhibition of CHK2 labeling at conserved Lys2 (DLKPENVLLSSQEEDCLIK) in human PBMC at 1 uM.
For experiment [8], the target named is Serine/threonine-protein kinase WNK1 (Homo sapiens) (UniProt Q9H4A3). Nature of the experiment: Inhibition of Wnk1 ATP binding site (GSFKTVYK) in human PBMC at 1 uM.
For experiment [9] the target is unchanged. Put plainly: Inhibition of Wnk1 activation Loop (IGDLGLATLKR) in human PBMC at 1 uM.
The target of experiment [10] is Serine/threonine-protein kinase 10 (Homo sapiens) (UniProt O94804). Put plainly: Inhibition of LOK conserved Lys2 (DLKAGNVLMTLEGDIR) in human PBMC at 1 uM. The settings on record: pooled result: one value given for 6 cell lines, strains, targets or settings.
In experiment [11] the target is Mitogen-activated protein kinase 3 (Homo sapiens) (UniProt P27361). Nature of the experiment: Inhibition of Erk1 ATP binding site (DLKPSNLLINTTCDLK) in human PBMC at 0.1 uM.
Experiment [12] concerns the target T1, Serine/threonine-protein kinase ULK3 (Homo sapiens) (UniProt Q6PHR2).
T1 sequence (whole entry): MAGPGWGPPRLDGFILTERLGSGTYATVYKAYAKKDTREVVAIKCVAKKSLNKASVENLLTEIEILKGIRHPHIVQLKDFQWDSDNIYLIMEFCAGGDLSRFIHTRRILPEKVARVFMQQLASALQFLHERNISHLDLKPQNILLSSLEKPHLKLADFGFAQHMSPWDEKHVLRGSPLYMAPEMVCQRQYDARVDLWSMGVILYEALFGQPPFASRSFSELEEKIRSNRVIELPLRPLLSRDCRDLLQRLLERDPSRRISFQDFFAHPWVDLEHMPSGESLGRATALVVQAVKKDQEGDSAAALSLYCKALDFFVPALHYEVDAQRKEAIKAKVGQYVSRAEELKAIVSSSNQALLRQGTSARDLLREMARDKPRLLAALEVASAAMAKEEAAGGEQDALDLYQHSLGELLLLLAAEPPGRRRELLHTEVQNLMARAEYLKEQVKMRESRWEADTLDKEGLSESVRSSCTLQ
Put plainly: Inhibition of ULK3 conserved Lys2 (NISHLDLKPQNILLSSLEKPHLK) in human PBMC at 1 uM.

Experiment [13] has as its target PAN2-PAN3 deadenylation complex subunit PAN3 (Homo sapiens) (UniProt Q58A45). Nature of the experiment: Inhibition of PAN3 Protein Kinase Domain (VMDPTKILITGK) in human PBMC at 0.1 uM.
Experiment [14] concerns the target Inhibitor of nuclear factor kappa-B kinase subunit alpha (Homo sapiens) (UniProt O15111). Put plainly: Inhibition of IKKa conserved Lys2 (DLKPENIVLQDVGGK) in human PBMC at 1 uM.
Experiment [15] deals with T2, Mitogen-activated protein kinase kinase kinase 6 (Homo sapiens) (UniProt O95382).
T2 sequence (whole entry): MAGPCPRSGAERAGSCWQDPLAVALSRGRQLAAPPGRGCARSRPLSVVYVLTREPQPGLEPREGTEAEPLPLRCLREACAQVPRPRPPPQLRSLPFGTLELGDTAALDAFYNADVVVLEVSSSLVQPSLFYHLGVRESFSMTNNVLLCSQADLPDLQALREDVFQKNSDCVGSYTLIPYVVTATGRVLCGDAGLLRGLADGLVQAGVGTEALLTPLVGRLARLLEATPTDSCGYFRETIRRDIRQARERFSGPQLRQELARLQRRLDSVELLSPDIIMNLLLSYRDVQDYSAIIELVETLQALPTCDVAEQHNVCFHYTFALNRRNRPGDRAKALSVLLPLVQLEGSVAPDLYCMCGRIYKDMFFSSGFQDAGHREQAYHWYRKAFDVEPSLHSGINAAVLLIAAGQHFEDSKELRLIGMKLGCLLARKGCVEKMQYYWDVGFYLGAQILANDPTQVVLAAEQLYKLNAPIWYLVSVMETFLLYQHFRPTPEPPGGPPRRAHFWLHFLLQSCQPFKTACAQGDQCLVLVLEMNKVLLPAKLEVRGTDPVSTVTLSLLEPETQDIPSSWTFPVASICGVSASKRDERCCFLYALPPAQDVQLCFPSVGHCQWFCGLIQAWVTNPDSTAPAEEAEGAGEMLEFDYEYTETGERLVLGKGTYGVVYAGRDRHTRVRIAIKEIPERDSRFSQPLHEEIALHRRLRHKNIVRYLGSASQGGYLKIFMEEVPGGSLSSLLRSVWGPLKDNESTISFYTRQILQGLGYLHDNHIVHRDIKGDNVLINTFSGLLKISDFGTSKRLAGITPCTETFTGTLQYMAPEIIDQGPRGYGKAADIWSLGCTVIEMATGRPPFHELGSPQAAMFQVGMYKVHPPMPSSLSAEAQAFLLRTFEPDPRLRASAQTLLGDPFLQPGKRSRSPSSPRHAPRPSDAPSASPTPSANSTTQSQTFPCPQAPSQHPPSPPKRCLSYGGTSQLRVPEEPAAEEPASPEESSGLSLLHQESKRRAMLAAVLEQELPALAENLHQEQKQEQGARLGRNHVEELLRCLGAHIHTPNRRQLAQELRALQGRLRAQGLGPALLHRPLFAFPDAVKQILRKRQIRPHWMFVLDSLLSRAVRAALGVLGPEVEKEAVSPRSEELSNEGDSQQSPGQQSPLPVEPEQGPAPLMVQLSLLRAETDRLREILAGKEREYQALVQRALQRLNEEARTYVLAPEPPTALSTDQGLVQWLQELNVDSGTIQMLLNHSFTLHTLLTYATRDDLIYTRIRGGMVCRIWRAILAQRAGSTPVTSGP
Put plainly: Inhibition of MAP3K6 conserved Lys1 (IAIKEIPER) in human PBMC at 0.1 uM.

Serine/threonine-protein kinase WNK1 (Homo sapiens), sequence (Q9H4A3 whole entry, looked up): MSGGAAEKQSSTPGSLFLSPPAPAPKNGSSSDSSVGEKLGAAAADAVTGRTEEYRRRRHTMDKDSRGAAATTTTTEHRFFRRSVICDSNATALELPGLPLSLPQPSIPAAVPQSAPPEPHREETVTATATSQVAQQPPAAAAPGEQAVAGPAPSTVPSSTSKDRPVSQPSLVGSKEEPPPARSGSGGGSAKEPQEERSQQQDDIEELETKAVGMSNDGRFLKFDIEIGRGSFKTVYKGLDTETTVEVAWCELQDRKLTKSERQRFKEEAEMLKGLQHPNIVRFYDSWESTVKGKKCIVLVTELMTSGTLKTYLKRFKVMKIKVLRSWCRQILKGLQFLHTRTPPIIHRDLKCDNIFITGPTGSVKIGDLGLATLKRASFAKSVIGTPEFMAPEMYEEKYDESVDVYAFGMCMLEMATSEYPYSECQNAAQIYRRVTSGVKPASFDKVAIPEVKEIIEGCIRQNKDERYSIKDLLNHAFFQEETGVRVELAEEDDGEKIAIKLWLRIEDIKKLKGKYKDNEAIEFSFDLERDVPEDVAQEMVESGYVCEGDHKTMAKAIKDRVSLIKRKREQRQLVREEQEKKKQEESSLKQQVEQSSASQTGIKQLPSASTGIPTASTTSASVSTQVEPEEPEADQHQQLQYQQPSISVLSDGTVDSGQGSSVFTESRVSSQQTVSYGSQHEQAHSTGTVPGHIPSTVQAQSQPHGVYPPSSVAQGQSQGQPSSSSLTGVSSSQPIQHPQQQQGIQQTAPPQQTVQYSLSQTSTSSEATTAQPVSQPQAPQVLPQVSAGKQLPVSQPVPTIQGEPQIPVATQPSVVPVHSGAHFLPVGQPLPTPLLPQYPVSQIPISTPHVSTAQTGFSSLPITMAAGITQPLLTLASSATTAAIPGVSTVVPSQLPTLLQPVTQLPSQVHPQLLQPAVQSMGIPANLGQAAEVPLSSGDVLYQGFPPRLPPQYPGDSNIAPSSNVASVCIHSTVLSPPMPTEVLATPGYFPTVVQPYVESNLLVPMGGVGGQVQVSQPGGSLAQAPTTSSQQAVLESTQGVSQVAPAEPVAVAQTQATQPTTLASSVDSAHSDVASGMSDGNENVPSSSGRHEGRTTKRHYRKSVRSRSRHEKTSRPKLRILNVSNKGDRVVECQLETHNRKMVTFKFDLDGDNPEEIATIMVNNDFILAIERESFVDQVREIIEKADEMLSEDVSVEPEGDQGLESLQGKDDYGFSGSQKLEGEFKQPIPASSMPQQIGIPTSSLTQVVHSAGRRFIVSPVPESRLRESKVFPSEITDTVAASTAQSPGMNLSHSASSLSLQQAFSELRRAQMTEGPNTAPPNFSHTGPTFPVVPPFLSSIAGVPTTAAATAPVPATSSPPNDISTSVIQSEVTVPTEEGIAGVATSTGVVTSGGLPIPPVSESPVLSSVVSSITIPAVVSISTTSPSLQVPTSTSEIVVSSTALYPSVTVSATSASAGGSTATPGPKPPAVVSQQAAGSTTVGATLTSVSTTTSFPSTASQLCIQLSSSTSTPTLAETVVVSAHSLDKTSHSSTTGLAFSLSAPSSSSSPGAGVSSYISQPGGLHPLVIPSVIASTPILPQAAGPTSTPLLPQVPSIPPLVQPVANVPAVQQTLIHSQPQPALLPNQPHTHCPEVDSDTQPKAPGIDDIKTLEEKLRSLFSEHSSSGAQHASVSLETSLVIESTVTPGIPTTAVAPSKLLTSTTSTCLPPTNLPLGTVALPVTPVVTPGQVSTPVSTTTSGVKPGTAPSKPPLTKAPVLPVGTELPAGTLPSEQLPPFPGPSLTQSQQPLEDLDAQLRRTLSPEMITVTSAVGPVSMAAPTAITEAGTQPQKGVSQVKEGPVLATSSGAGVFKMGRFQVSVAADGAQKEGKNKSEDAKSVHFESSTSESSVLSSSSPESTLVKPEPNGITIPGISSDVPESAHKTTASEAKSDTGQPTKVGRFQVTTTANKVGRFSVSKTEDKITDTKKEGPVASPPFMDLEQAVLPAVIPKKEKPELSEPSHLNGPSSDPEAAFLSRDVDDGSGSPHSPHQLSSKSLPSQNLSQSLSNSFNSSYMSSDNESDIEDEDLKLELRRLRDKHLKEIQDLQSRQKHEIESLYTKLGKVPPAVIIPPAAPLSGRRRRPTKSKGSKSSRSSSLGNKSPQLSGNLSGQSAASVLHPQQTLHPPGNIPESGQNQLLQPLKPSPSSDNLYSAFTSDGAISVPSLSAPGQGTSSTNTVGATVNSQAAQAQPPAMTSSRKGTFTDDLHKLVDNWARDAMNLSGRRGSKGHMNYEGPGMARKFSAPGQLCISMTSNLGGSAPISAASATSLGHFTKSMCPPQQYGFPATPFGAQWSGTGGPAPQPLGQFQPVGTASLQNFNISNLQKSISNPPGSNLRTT
Mitogen-activated protein kinase 3 (Homo sapiens), sequence (P27361 whole entry): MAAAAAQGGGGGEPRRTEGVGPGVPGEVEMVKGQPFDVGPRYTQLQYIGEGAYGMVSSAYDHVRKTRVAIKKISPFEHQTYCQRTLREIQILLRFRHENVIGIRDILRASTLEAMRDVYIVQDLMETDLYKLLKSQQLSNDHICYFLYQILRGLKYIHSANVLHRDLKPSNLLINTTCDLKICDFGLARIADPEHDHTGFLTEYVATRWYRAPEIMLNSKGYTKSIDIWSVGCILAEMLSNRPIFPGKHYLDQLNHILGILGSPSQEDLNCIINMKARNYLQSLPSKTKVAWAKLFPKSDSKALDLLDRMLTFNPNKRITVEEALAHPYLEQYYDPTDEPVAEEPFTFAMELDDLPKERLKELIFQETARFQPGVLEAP
Serine/threonine-protein kinase TBK1 (Homo sapiens), sequence (Q9UHD2 whole entry): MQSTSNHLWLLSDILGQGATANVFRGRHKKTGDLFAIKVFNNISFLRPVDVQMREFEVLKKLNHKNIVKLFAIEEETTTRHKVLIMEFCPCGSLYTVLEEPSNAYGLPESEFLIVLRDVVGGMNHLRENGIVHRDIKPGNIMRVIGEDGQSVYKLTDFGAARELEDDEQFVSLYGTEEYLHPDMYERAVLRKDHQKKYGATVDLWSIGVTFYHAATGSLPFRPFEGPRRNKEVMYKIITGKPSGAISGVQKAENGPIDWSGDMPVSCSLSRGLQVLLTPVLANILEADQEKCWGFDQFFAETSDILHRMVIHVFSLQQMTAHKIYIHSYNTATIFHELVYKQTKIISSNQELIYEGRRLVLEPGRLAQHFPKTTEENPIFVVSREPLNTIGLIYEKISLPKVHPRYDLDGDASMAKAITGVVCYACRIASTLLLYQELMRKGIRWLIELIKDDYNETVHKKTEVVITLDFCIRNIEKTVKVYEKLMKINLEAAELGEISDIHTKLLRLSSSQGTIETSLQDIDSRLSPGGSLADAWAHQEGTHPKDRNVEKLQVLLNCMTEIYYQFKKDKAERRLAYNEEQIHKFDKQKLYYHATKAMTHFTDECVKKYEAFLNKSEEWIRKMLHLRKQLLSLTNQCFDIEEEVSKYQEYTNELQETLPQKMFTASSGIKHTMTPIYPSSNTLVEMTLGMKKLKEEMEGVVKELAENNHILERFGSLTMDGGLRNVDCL
PAN2-PAN3 deadenylation complex subunit PAN3 (Homo sapiens), sequence (Q58A45 whole entry, the tested form may be a part, one chain of several): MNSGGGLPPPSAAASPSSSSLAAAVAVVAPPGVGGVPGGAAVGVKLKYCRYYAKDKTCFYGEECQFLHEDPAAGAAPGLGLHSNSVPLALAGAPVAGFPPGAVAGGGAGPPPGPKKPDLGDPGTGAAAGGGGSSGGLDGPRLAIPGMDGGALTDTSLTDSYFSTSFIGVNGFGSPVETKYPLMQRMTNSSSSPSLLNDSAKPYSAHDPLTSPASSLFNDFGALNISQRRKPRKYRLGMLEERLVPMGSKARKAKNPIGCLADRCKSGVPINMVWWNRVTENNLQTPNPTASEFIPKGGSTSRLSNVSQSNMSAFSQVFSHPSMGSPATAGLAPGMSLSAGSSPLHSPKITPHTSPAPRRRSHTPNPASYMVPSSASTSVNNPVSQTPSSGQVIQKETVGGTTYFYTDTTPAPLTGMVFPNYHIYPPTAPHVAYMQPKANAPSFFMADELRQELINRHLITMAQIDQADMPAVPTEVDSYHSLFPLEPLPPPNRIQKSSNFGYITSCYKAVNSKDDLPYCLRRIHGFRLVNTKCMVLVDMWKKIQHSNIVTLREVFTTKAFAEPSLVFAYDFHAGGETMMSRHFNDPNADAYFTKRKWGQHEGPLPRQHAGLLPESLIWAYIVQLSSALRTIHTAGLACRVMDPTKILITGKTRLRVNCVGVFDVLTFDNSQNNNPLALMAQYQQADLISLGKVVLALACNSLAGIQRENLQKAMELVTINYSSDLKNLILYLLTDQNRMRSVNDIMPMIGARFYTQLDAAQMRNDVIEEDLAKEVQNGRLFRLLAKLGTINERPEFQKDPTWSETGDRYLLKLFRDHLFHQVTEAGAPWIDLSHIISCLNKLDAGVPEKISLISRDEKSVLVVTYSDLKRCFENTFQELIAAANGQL
Ribosomal protein S6 kinase alpha-1 (Homo sapiens), sequence (Q15418 whole entry, the tested form may be a part): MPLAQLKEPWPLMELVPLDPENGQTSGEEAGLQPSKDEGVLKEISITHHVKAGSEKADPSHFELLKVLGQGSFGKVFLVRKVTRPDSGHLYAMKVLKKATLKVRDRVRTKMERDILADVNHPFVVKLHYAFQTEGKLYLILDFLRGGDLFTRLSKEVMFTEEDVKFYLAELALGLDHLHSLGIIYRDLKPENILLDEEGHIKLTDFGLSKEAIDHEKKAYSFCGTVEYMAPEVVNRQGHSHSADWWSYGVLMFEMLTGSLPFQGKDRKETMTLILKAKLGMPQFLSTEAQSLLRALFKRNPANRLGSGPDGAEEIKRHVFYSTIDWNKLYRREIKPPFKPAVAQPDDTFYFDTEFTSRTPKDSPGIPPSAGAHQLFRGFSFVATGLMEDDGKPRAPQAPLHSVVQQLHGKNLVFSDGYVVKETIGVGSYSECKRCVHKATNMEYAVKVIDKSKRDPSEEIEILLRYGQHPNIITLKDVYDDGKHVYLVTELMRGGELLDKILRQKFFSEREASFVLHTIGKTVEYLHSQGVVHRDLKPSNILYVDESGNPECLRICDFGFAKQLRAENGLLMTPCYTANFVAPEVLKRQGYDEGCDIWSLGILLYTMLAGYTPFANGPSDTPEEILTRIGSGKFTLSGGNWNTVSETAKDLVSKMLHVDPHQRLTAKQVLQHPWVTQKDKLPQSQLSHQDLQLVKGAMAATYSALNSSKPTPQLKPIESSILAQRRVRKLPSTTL

On to `CC(C)n1cc(-c2cc(-c3ccc(CN4CCOCC4)cc3)cnc2N)nn1`, for which the inhibition in [1] was 11%; in experiment [2], 8.5%; in [3], 2.2%; in experiment [4], 3.2%; in [5], -6.7%; in [6] it was 17.2%. For the same compound, the inhibition in [7] is -7.8%; in experiment [8] it was 14.2%; in [9], 21.9%; in experiment [10], 14.5%; in experiment [11], -6.4%; in experiment [12], 40.8%. In addition, the figures for the inhibition in experiment [13], in experiment [14] and in experiment [15] were 6.2%, -1.2% and -0.5%, respectively.

What is called inhibition is the drop in the measured response relative to a control, in per cent.
